≈ marks a conversion by molar mass, not a printed value. Where two headings read alike, the source gives them in different places.
Assays:
[1] = biological target: T1, Orf11* (Actinoplanes teichomyceticus, UniProt Q70AY4); assay: isothermal titration calorimetry (ITC) of acyl-CoA ligands versus Orf11* (FIG. 9); format: binding
T1 sequence (Q70AY4 1-323): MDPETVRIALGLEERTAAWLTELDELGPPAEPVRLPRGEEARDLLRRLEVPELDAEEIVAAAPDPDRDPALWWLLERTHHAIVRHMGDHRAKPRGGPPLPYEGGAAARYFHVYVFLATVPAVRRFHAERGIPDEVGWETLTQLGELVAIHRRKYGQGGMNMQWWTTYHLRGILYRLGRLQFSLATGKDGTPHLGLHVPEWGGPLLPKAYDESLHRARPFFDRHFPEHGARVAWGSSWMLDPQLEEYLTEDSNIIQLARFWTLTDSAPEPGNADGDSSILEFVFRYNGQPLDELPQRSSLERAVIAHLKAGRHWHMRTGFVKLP
Method: (§1) ITC thermograms of Orf11* versus CoA, acetyl-CoA, butyryl-CoA, hexanoyl-CoA, octanoyl-CoA, decanoyl-CoA, lauroyl-CoA, myristoyl-CoA, palmitoyl-CoA, stearoyl-CoA or Tei-pseudoaglycone. Each exothermic heat pulse corresponds to an injection of 2 μl of ligands (1 mM˜5 mM) into a protein solution (0.1 mM); integrated heat areas constitute a differential binding curve that was fitted with a standard single-site binding model (Origin 7.0, MicroCal iTC200).
The orf11* and dbv8 genes were amplified and subcloned into the expression vector pET28a(+). The clones were transformed into E. coli BL21(DE3) for protein over-expression. A typical procedure is described as follows: One liter of LB medium containing 50 mg/L kanamycin was inoculated with 10 mL of an overnight culture grown in LB medium (containing 50 mg/L kanamycin), induced with 1 mL 1.0M IPTG (to give 1.0 mM; exact concentrations varied between proteins) at an OD600 of 0.7, and grown for a further 8 hours at 16° C. Cells were harvested by centrifugation at 6000 rpm for 20 min at 4° C., resuspended in 30 mL binding buffer (50 mM Tris at pH 8.0, 500 mM NaCl, 10 mM imidazole, 10% glycerol) and disrupted by microfluidizer. The cell lysate was centrifuged at 18000 rpm for 30 minutes to remove cell debris. The supernatant was applied to a Ni^2+-NTA agarose resin column (2 mL, Novagen) pre-equilibrated with binding buffer. The column was washed sequentially with 20 mL of binding buffer and 10 mL washing buffer (50 mM Tris at pH 8.0, 500 mM NaCl, 50 mM imidazole, 10% glycerol). The bound protein then was eluted with 10 mL of elution buffer (50 mM Tris at pH 8.0, 500 mM NaCl, 250 mM imidazole, 10% glycerol). Gel filtration was performed using an Äkta FPLC system equipped with an S-200 Superdex column (Amersham Bioscience) under isocratic conditions (50 mM Tris at pH 8.0, 500 mM NaCl). The buffer was exchanged using Millipore centrifugal filters and HEPES buffer (50 mM, pH 8.0). Protein purity was determined by SDS-PAGE and Western blotting, and electrospray mass spectrometry (ESI-MS). Protein concentrations were estimated using the Bradford assay.
(§2) Protein expression, purification and confirmation of purity were performed according to standard protocols. Acyl-CoA analogs were chemically synthesized as described previously (Huang, Y. T. et al. In vitro characterization of enzymes involved in the synthesis of nonproteinogenic residue (2S,3S)-beta-methylphenylalanine in glycopeptide antibiotic mannopeptimycin. Chembiochem 10, 2480-2487, doi:10.1002/cbic.200900351 (2009); Li, T. L., Spiteller, D. & Spencer, J. B. Identification of a pentaketide stilbene produced by a type III polyketide synthase from Pinus sylvestris and characterisation of free coenzyme A intermediates. Chembiochem 10, 896-901, doi:10.1002/cbic.200800840 (2009)). Single-wavelength anomalous dispersion (SAD) and molecular replacement (MR) methods were used to solve structures of native and complex Orf11*/Dbv8. Mutants were made by using QuickChange®. Biochemical analyses for wild type protein and mutants were performed using LC-MS. Oligomerization states of the proteins in solution were determined by gel filtration chromatography and analytical ultracentrifugation (AUC). Substrate-enzyme affinity was determined using isothermal titration calorimetry (ITC). Biological assays were performed according standard protocols.
The GNAT domain in Orf11*/Dbv8 differs from the canonical GNAT fold as it lacks the first β strand, and the C-terminus extends with four additional helices (α10-α13). β-Strands β3 and β4 splay apart at C-termini, where Pro198 replaces a typical β-bulge. In a decanoyl-CoA-complexed binary structure (FIG. 2c), the decanoyl-CoA bends in an ‘S’ shape edging in the splayed fingers β3 and β4 (FIG. 8). […]

[2] = system: E. faecalis (ATCC 51559); assay: Mouse infection treatment study, ED50 (rescue of 50% infected mice); format: in vivo
Method: The preliminary ED50 (potency) of the 2-decanoyl,6-octanoyl teicoplanin analog was determined as follows. 6-8 weeks BALB/c female mice were purchased from the National Laboratory Animal Breeding and Research Center, Taipei, Taiwan. Mice with average body weight of 25 to 30 g were subjected to infection via intraperitoneal (i.p.) injection with 1×10^10 cfu/mouse of E. faecalis (ATCC 51559) at day 0. For the treatment study, mice were randomly assigned into five groups at the start of the experiment and administered different amount of either vancomycin, teicoplanin, 2-C10-6-C8-Teicoplanin, or saline (as a blank control) by i.v. twice a day for two days (from day 1 to day 2, a total of 4 doses). The ED50 was determine by the concentration of compounds sufficient to rescue 50% infected mice.

[3] = system: ATCC 29302; assay: MIC by broth microdilution (NCCLS); format: cell-based
Method: (§3) The MIC values were determined by the broth microdilution method, as recommended by the National Committee for Clinical Laboratory Standards (NCCLS). Briefly, overnight cultures of tested bacteria were suspended to a turbidity of 0.1 OD units (1˜5×10^8 CFU/ml). Microtiter plates containing serial dilutions of each antimicrobial agent (0, 1, 2, 4, 8, 16, 32, 64, and 128 μg/ml) were inoculated with each organism to yield the appropriate density (1˜5×10^5 CFU/ml) in a 200 μL final volume. The plates were incubated for 18˜22 h at 37° C.
(§4) MICs were determined as concentrations at which no growth was observed against the strain tested. Experiments were performed in double duplicate. ATCC 29302/ATCC 33186: a standard strain; ATCC 51299: a low-level vancomycin-resistant (VanB type); ATCC 51559: a multidrug-resistant strain (ampicillin, ciprofloxacin, gentamicin, rifampin, teicoplanin and vancomycin, VanA type VRE); ATCC 700221: a strain resistant to vancomycin, VanA type VRE. ATCC 700802 is a strain resistant to gentamicins and vancomycin.

[4] = system: ATCC 33186; assay: MIC by broth microdilution (NCCLS); format: cell-based
Method: as §3, §4

[5] = system: ATCC 51299; assay: MIC by broth microdilution (NCCLS); format: cell-based
Method: as §3, §4

[6] = system: ATCC 700221; assay: MIC by broth microdilution (NCCLS); format: cell-based
Method: as §3, §4

[7] = system: ATCC 700802; assay: MIC by broth microdilution (NCCLS); format: cell-based
Method: as §3, §4

[8] = system: ATCC 51559; assay: MIC by broth microdilution (NCCLS); format: cell-based, E. faecalis
Method: as §3, §4

[9] = system: Orf11*/Dbv8; assay: Isothermal titration calorimetry (ITC) analysis of substrate-enzyme affinity; format: binding; settings: ligand injected into protein solution (0.1 mM)
Method: as §1, §2

[10] = ITC, injections of 2 μl of ligand (1 mM˜5 mM) into protein solution (0.1 mM), single-site binding model (Origin 7.0, MicroCal iTC200), Orf11* expressed from pET28a(+) in E. coli BL21(DE3), no mutation stated, read-out: dissociation constant (Kd)
[11] = standard strain, 18~22 h at 37° C.

## CCCCCCCCCC(=O)SCCNC(=O)CCNC(=O)[C@H](O)C(C)(C)COP(=O)(O)OP(=O)(O)OC[C@H]1O[C@@H](n2cnc3c(N)ncnc32)[C@H](O)[C@@H]1OP(=O)(O)O [decanoyl-CoA]
[1]; [10]
  Kd: 1 ± 0.1 µM

## CCCCCC(=O)SCCNC(=O)CCNC(=O)[C@H](O)C(C)(C)COP(=O)(O)OP(=O)(O)OC[C@H]1O[C@@H](n2cnc3c(N)ncnc32)[C@H](O)[C@@H]1OP(=O)(O)O [hexanoyl-CoA]
[1]; [10]
  Kd: 85.6 ± 9 µM

## CCCCCCCCCCCCCCCCCC(=O)SCCNC(=O)CCNC(=O)[C@H](O)C(C)(C)COP(=O)(O)OP(=O)(O)OC[C@H]1O[C@@H](n2cnc3c(N)ncnc32)[C@H](O)[C@@H]1OP(=O)(O)O [stearoyl-CoA]
[1]; [10]
  Kd: 4.3 ± 0.8 µM

## CCCCCCCCCCCCCC(=O)SCCNC(=O)CCNC(=O)[C@H](O)C(C)(C)COP(=O)(O)OP(=O)(O)OC[C@H]1O[C@@H](n2cnc3c(N)ncnc32)[C@H](O)[C@@H]1OP(=O)(O)O [myristoyl-CoA]
[1]
  Kd: 5.9 ± 1.2 µM

## CN[C@H](CC(C)C)C(=O)N[C@H]1C(=O)N[C@@H](CC(N)=O)C(=O)N[C@H]2C(=O)N[C@H]3C(=O)N[C@H](C(=O)N[C@H](C(=O)O)c4cc(O)cc(O)c4-c4cc3ccc4O)[C@H](O)c3ccc(c(Cl)c3)Oc3cc2cc(c3O[C@@H]2O[C@H](CO)[C@@H](O)[C@H](O)[C@H]2O[C@H]2C[C@](C)(N)[C@H](O)[C@H](C)O2)Oc2ccc(cc2Cl)[C@H]1O [Vancomycin, vancomycin]
[2]; Enterococcus faecalis, ATCC51559, 48 h, read-out: ED50 against ATCC 51559
  ED50: > 128 mg/kg
[3]; 22 h, read-out: MIC ATCC 29302
  MIC: 1 µg/mL (≈ 0.69 µM)
[4]; 22 h, read-out: MIC ATCC 33186
  MIC: 4 µg/mL (≈ 2.76 µM)
[5]; 22 h, read-out: MIC ATCC 51299
  MIC: > 64 µg/mL
[6]; Enterococcus, ATCC 700221 / VRE, 22 h, read-out: MIC ATCC 700221
  MIC: > 128 µg/mL
[7]; 22 h, read-out: MIC ATCC 700802
  MIC: 64 µg/mL (≈ 44.2 µM)
[8]; Enterococcus, ATCC 51559 / VRE, 22 h, read-out: MIC ATCC 51559
  MIC: 1020 µg/mL (≈ 707 µM)

## Teicoplanin
[2]; BALB/c female mice infected i.p. with 1×10^10 cfu/mouse, i.v. twice a day for two days (4 doses), amount rescuing 50% infected mice, preliminary
  ED50 against ATCC 51559: >128 mg/kg
[3]; [11]
  MIC ATCC 29302: 0.25 µg/mL
[4]; [11]
  MIC ATCC 33186: 0.25 µg/mL
[5]; low-level vancomycin-resistant (VanB type), 18~22 h at 37° C.
  MIC ATCC 51299: 0.5 µg/mL
[6]; resistant to vancomycin, VanA type VRE, 18~22 h at 37° C.
  MIC ATCC 700221: >128 µg/mL
[7]; resistant to gentamicins and vancomycin, 18~22 h at 37° C.
  MIC ATCC 700802: 0.5 µg/mL
[8]; multidrug-resistant strain, VanA type VRE, 18~22 h at 37° C.
  MIC ATCC 51559: 256 µg/mL

## CCCCCCCCCCCCCCCC(=O)SCCNC(=O)CCNC(=O)[C@H](O)C(C)(C)COP(=O)(O)OP(=O)(O)OC[C@H]1O[C@@H](n2cnc3c(N)ncnc32)[C@H](O)[C@@H]1OP(=O)(O)O [palmitoyl-CoA]
[1]; [10]
  Kd: 0.4 ± 0.08 µM

## CC(C)(COP(=O)(O)OP(=O)(O)OC[C@H]1O[C@@H](n2cnc3c(N)ncnc32)[C@H](O)[C@@H]1OP(=O)(O)O)[C@@H](O)C(=O)NCCC(=O)NCCSC(=O)CC(=O)O [malonyl-CoA]
[9]
  binding to the enzyme (ITC): does not bind

## CC(C)(COP(=O)(O)OP(=O)(O)OC[C@H]1O[C@@H](n2cnc3c(N)ncnc32)[C@H](O)[C@@H]1OP(=O)(O)O)[C@@H](O)C(=O)NCCC(=O)NCCSC(=O)c1ccccc1 [benzoyl-CoA]
[9]
  binding to the enzyme (ITC): does not bind

## Tei pseudoaglycone [Tei pseudoaglycone 3]
[9]
  binding to the enzyme (ITC): barely binds

## CCCC(=O)SCCNC(=O)CCNC(=O)[C@H](O)C(C)(C)COP(=O)(O)OP(=O)(O)OC[C@H]1O[C@@H](n2cnc3c(N)ncnc32)[C@H](O)[C@@H]1OP(=O)(O)O [butyryl-CoA]
[1]
  Kd: 111 ± 23 µM

## CC(C(=O)O)C(=O)SCCNC(=O)CCNC(=O)[C@H](O)C(C)(C)COP(=O)(O)OP(=O)(O)OC[C@H]1O[C@@H](n2cnc3c(N)ncnc32)[C@H](O)[C@@H]1OP(=O)(O)O (stereo partly drawn) [methylmalonyl-CoA]
[9]
  binding to the enzyme (ITC): does not bind

## CC(C)(COP(=O)(O)OP(=O)(O)OC[C@H]1O[C@@H](n2cnc3c(N)ncnc32)[C@H](O)[C@@H]1OP(=O)(O)O)[C@@H](O)C(=O)NCCC(=O)NCCS [CoA 5, coenzyme A]
[9]
  binding to the enzyme (ITC): barely binds

## CCCCCCCC(=O)SCCNC(=O)CCNC(=O)[C@H](O)C(C)(C)COP(=O)(O)OP(=O)(O)OC[C@H]1O[C@@H](n2cnc3c(N)ncnc32)[C@H](O)[C@@H]1OP(=O)(O)O [octanoyl-CoA]
[1]; [10]
  Kd: 1 ± 0.1 µM

## CCCCCCCCCCCC(=O)SCCNC(=O)CCNC(=O)[C@H](O)C(C)(C)COP(=O)(O)OP(=O)(O)OC[C@H]1O[C@@H](n2cnc3c(N)ncnc32)[C@H](O)[C@@H]1OP(=O)(O)O [lauroyl-CoA]
[1]; [10]
  Kd: 4.1 ± 0.8 µM

From patent US10316064B2, “Teicoplanin analogs and uses thereof” (Academia Sinica, priority 2014, dated 2019)
